According to patent US8415375B2, “2-hydroxyethyl-1H-quinolin-2-one derivatives and their azaisosteric analogues with antibacterial activity” (Actelion Pharmaceuticals Ltd., priority 2009, dated 2013):
≈ marks a conversion by molar mass, not a printed value.

Tests used:
Format in all cases: cell-based
hERG K+ channel = biological target: T1, hERG K+ channel (Homo sapiens, UniProt Q12809); assay: In vitro blocking of hERG K+ channels (QPatch automated patch-clamp, CHO-K1 cells); details: pH 7.4, at 10 μM, recombinant hERG in CHO-K1 cells, average block on two cells
T1 construct: host or cells: CHO-K1 (CHOhERG)
Experimental: hERG K^+ channels have been cloned from human heart and recombinant channels are stably expressed in CHO-K1 cells (CHOhERG). These cells have been purchased from bSys GmbH(CH-4052 Basel, Switzerland) and are grown in 150 mL culture flasks at 37° C. in 5% CO2. When the cells are ˜100% confluent, they are detached with 0.25% trypsin-EDTA solution and placed in the cell preparation unit of a QPatch automated patch-clamp robot (Sophion Bioscience A/S, 2750 Ballerup, Denmark).
Currents through the hERG K^+ channels (IKhERG) are elicited using the following buffer solutions and voltage protocol: • extracellular solution (in mM): [NaCl]=150; [KCl]=4; [CaCl2]=1.2; [MgCl2]=1; [HEPES]=10; pH adjusted to 7.4 with NaOH; • intracellular solution (in mM): [KCl]=140; [NaCl]=10; [MgCl2]=1; [HEPES]=10; [EGTA]=5; [Mg-ATP]=5; [Na3-GTP]=0.1; pH adjusted to 7.2 with KOH; • voltage protocol: the resting potential is −80 mV and the frequency of stimulation is 0.1 Hz. hERG K^+ currents are measured as the average current during the last 20 ms of the 500 ms pulse to −40 mV minus the average current during the last 20 ms of the 50 ms pulse to −40 mV.
After the cells have stabilized for a few minutes and the currents are steady, the amplitude of IKhERG is recorded under control conditions. Thereafter, the QPatch robot applies the test compound to the cell at the test concentration and, after 4 minutes of stimulation, the amplitude of IKhERG is recorded under test conditions. The ratio of the two amplitudes is used to define a fractional block and the average block on two cells is used to provide the effect of a given concentration (e.g. 10 μM). If, for a given test compound, a sufficient number of concentrations were tested, an apparent IC50 for inhibition of IKhERG is calculated.

S. aureus 29213 = assay: Bacterial growth minimal inhibitory concentration (microdilution, cation-adjusted Mueller-Hinton Broth); details: Staphylococcus aureus
Experimental: Minimal inhibitory concentrations (MICs; mg/l) were determined in cation-adjusted Mueller-Hinton Broth by a microdilution method following the description given in “Methods for Dilution Antimicrobial Susceptibility Tests for Bacteria that Grow Aerobically”, Approved standard, 7th ed., Clinical and Laboratory Standards Institute (CLSI) Document M7-A7, Wayne, Pa., USA, 2006. All Example compounds were tested against several Gram positive and Gram negative bacteria. Typical antibacterial test results are given in Table 1 hereafter (MIC in mg/l).

S. aureus A798 = assay: Bacterial growth minimal inhibitory concentration (microdilution), S. aureus A798; details: Staphylococcus aureus
Experimental: Minimal inhibitory concentrations (MICs; mg/l) were determined in cation-adjusted Mueller-Hinton Broth by a microdilution method following the description given in “Methods for Dilution Antimicrobial Susceptibility Tests for Bacteria that Grow Aerobically”, Approved standard, 7th ed., Clinical and Laboratory Standards Institute (CLSI) Document M7-A7, Wayne, Pa., USA, 2006.
[drawing 16] using the experimentals methods described above for the MIC regarding S. aureus A798 bacteria and for in vitro blocking hERG K^+ channels gave the results summarised in the Table 2 hereafter.

T1 sequence (Q12809 whole entry): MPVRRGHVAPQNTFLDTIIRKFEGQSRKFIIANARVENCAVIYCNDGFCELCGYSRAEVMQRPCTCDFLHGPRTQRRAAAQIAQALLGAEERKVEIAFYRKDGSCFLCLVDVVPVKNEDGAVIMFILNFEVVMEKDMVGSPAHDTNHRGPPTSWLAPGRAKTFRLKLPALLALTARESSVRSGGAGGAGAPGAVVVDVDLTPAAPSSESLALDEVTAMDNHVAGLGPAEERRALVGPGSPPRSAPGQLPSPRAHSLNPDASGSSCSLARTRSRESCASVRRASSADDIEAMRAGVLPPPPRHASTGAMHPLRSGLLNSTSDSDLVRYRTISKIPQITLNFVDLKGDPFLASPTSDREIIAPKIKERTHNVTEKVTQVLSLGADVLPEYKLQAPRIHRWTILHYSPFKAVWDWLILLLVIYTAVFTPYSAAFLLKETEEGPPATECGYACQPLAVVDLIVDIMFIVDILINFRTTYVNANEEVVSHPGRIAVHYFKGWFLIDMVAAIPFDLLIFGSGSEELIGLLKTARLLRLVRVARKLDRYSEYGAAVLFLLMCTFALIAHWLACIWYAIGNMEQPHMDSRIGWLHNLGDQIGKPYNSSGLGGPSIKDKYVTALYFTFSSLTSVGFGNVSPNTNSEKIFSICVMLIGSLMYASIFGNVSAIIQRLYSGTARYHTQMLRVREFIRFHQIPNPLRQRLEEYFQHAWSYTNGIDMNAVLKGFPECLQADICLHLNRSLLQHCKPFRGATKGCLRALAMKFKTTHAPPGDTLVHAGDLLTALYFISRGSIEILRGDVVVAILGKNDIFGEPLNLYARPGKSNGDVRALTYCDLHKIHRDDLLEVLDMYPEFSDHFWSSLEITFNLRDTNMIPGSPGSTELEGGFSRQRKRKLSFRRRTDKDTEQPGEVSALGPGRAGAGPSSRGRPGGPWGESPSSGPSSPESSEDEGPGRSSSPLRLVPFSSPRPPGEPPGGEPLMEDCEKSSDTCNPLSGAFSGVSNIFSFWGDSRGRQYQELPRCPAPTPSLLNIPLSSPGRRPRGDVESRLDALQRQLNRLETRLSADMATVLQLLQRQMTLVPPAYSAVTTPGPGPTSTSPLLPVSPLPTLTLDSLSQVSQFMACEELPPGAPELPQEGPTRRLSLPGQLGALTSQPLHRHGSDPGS

SMILES: COc1ccc2ccc(=O)n(C[C@H](O)[C@@H]3CC[C@@H](NCc4cc5c(cn4)OCCS5)CO3)c2n1 [Example 1, 1-((S)-2-{(2S,5R)-5-[(2,3-dihydro-4-oxa-1-thia-6-aza-naphthalen-7-ylmethyl)-amino]-tetrahydro-pyran-2-yl}-2-hydroxy-ethyl)-7-methoxy-1H-[1,8]naphthyridin-2-one]
- inhibition at 4 min, 10 µM (hERG K+ channel): 32%
- MIC (S. aureus 29213): ≤ 0.031 µg/mL

SMILES: COc1ccc2ccc(=O)n(C[C@H](O)[C@@H]3CC[C@@H](NCc4cc5c(cn4)OCCO5)CO3)c2n1 [Example 2, 1-((2S)-2-{(2S,5R)-5-[(2,3-dihydro-[1,4]dioxino[2,3-c]pyridin-7-ylmethyl)-amino]-tetrahydro-pyran-2-yl}-2-hydroxy-ethyl)-7-methoxy-1H-[1,8]naphthyridin-2-one]
- MIC (S. aureus A798): ≤ 0.063 µg/mL
- inhibition at 4 min, 10 µM (hERG K+ channel): 18%
- MIC (S. aureus 29213): ≤ 0.031 µg/mL

SMILES: COc1ccc2ncc(=O)n(C[C@H](O)[C@@H]3CC[C@@H](NCc4cc5c(cn4)OCCO5)CO3)c2c1 [Example 3, 1-((2S)-2-{(2S,5R)-5-[(2,3-dihydro-[1,4]dioxino[2,3-c]pyridin-7-ylmethyl)-amino]tetrahydro-pyran-2-yl}-2-hydroxy-ethyl)-7-methoxy-1H-quinoxalin-2-one]
- MIC (S. aureus A798): ≤ 0.063 µg/mL
- inhibition at 4 min, 10 µM (hERG K+ channel): 18%
- MIC (S. aureus 29213): ≤ 0.031 µg/mL

SMILES: COc1ccc2ncc(=O)n(C[C@H](O)[C@@H]3CC[C@@H](NCc4cc5c(cn4)OCCO5)CO3)c2n1 [Example 4, 4-((2S)-2-{(2S,5R)-5-[(2,3-dihydro-[1,4]dioxino[2,3-c]pyridin-7-ylmethyl)-amino]tetrahydro-pyran-2-yl}-2-hydroxy-ethyl)-6-methoxy-4H-pyrido[2,3-b]pyrazin-3-one]
- MIC (S. aureus A798): ≤ 0.063 µg/mL
- inhibition at 4 min, 10 µM (hERG K+ channel): 7%
- MIC (S. aureus 29213): ≤ 0.031 µg/mL

SMILES: COc1ccc2ccc(=O)n(C[C@H](O)[C@@H]3CC[C@@H](NCc4cc5c(nn4)OCCO5)CO3)c2n1 [Example 5, 1-((2S)-2-{(2S,5R)-5-[(6,7-dihydro-[1,4]dioxino[2,3-c]pyridazin-3-ylmethyl)-amino]tetrahydro-pyran-2-yl}-2-hydroxy-ethyl)-7-methoxy-1H-[1,8]naphthyridin-2-one]
- inhibition at 4 min, 10 µM (hERG K+ channel): 28%
- MIC (S. aureus 29213): 0.063 µg/mL (≈ 0.134 µM)

SMILES: COc1ccc2ccc(=O)n(C[C@H](O)C3CCC(NCc4cc5c(cn4)OCCO5)CC3)c2n1 (stereo partly drawn) [Example 6, 1-((2R)-2-{4-[(2,3-dihydro-[1,4]dioxino[2,3-c]pyridin-7-ylmethyl)-amino]cyclohexyl}-2-hydroxy-ethyl)-7-methoxy-1H-[1,8]naphthyridin-2-one]
- MIC (S. aureus A798): ≤ 0.063 µg/mL
- inhibition at 4 min, 10 µM (hERG K+ channel): 35%
- MIC (S. aureus 29213): ≤ 0.031 µg/mL

SMILES: COc1ccc2ncc(=O)n(C[C@H](O)C3CCC(NCc4cc5c(cn4)OCCO5)CC3)c2c1 (stereo partly drawn) [Example 7, 1-((2R)-2-{4-[(2,3-dihydro-[1,4]dioxino[2,3-c]pyridin-7-ylmethyl)-amino]-cyclohexyl}-2-hydroxy-ethyl)-7-methoxy-1H-quinoxalin-2-one]
- MIC (S. aureus A798): 0.125 µg/mL (≈ 0.268 µM)
- inhibition at 4 min, 10 µM (hERG K+ channel): 18%
- MIC (S. aureus 29213): ≤ 0.031 µg/mL

SMILES: COc1ccc2ccc(=O)n(C[C@H](O)[C@@H]3CC[C@@H](NCc4cc5c(nn4)OCCS5)CO3)c2n1 [Example 8, 1-((2S)-2-{(2S,5R)-5-[(6,7-dihydro-8-oxa-5-thia-1,2-diaza-naphthalen-3-ylmethyl)-amino]-tetrahydro-pyran-2-yl}-2-hydroxy-ethyl)-7-methoxy-1H-[1,8]naphthyridin-2-one]
- inhibition at 4 min, 10 µM (hERG K+ channel): 6%
- MIC (S. aureus 29213): 0.5 µg/mL (≈ 1.03 µM)

SMILES: COc1ccc2ccc(=O)n(C[C@H](O)[C@@H]3CC[C@@H](NCc4cc5c(cn4)OCS5)CO3)c2n1 [Example 9, 1-((2S)-2-hydroxy-2-{(2S,5R)-5-[(3-oxa-1-thia-5-aza-indan-6-ylmethyl)-amino]-tetrahydro-pyran-2-yl}-ethyl)-7-methoxy-1H-[1,8]naphthyridin-2-one]
- inhibition at 4 min, 10 µM (hERG K+ channel): 52%
- MIC (S. aureus 29213): ≤ 0.031 µg/mL

SMILES: COc1ccc2cc(F)c(=O)n(C[C@H](O)[C@@H]3CC[C@@H](NCc4cc5c(cn4)OCS5)CO3)c2n1 [Example 10, 3-fluoro-1-((2S)-2-hydroxy-2-{(2S,5R)-5-[(3-oxa-1-thia-5-aza-indan-6-ylmethyl)-amino]-tetrahydro-pyran-2-yl}-ethyl)-7-methoxy-1H-[1,8]naphthyridin-2-one]
- inhibition at 4 min, 10 µM (hERG K+ channel): 48%
- MIC (S. aureus 29213): ≤ 0.031 µg/mL

SMILES: COc1ccc2ncc(=O)n(C[C@H](O)[C@@H]3CC[C@@H](NCc4cc5c(cn4)OCCS5)CO3)c2n1 [Example 11, 4-((2S)-2-{(2S,5R)-5-[(2,3-dihydro-4-oxa-1-thia-6-aza-naphthalen-7-ylmethyl)-amino]-tetrahydro-pyran-2-yl}-2-hydroxy-ethyl)-6-methoxy-4H-pyrido[2,3-b]pyrazin-3-one]
- inhibition at 4 min, 10 µM (hERG K+ channel): 45%
- MIC (S. aureus 29213): ≤ 0.031 µg/mL

SMILES: COc1ccc2ncc(=O)n(C[C@H](O)[C@@H]3CC[C@@H](NCc4cc5c(nn4)OCCS5)CO3)c2n1 [Example 12, 4-((2S)-2-{(2S,5R)-5-[(6,7-dihydro-8-oxa-5-thia-1,2-diaza-naphthalen-3-ylmethyl)-amino]-tetrahydro-pyran-2-yl}-2-hydroxy-ethyl)-6-methoxy-4H-pyrido[2,3-b]pyrazin-3-one]
- inhibition at 4 min, 10 µM (hERG K+ channel): 7%
- MIC (S. aureus 29213): 0.063 µg/mL (≈ 0.129 µM)

SMILES: COc1cnc2ccc(=O)n(C[C@H](O)[C@@H]3CC[C@@H](NCc4cc5c(cn4)OCCO5)CO3)c2n1 [Example 13, 5-((2S)-2-{(2S,5R)-5-[(2,3-dihydro-[1,4]dioxino[2,3-c]pyridin-7-ylmethyl)-amino]-tetrahydro-pyran-2-yl}-2-hydroxy-ethyl)-3-methoxy-5H-pyrido[2,3-b]pyrazin-6-one]
- inhibition at 4 min, 10 µM (hERG K+ channel): 5%
- MIC (S. aureus 29213): 0.125 µg/mL (≈ 0.266 µM)

SMILES: COc1cnc2ccc(=O)n(C[C@H](O)[C@@H]3CC[C@@H](NCc4cc5c(cn4)OCCS5)CO3)c2n1 [Example 14, 5-((2S)-2-{(2S,5R)-5-[(2,3-dihydro-4-oxa-1-thia-6-aza-naphthalen-7-ylmethyl)-amino]-tetrahydro-pyran-2-yl}-2-hydroxy-ethyl)-3-methoxy-5H-pyrido[2,3-b]pyrazin-6-one]
- MIC (S. aureus 29213): ≤ 0.031 µg/mL

SMILES: COc1cnc2ccc(=O)n(C[C@H](O)[C@@H]3CC[C@@H](NCc4cc5c(nn4)OCCS5)CO3)c2n1 [Example 15, 5-((S)-2-{(2S,5R)-5-[(6,7-dihydro-8-oxa-5-thia-1,2-diaza-naphthalen-3-ylmethyl)-amino]-tetrahydro-pyran-2-yl}-2-hydroxy-ethyl)-3-methoxy-5H-pyrido[2,3-b]pyrazin-6-one]
- inhibition at 4 min, 10 µM (hERG K+ channel): 0%
- MIC (S. aureus 29213): 0.25 µg/mL (≈ 0.514 µM)
